Measurements reported in patent publication US10941399B2, “Methods and compositions for gene-specific demethylation by DNA methyltransferase (DNMT)-RNA interaction” (Beth Israel Deaconess Medical Center, Inc., priority 2011, dated 2021).

Biological target: DNMT1 (Homo sapiens, UniProt P26358)
Test: Nuclear RNA immunoprecipitation (RIP) with anti-DNMT1 antibody
Format: binding
Set-up: endogenous in cells; host or cells: HL-60 cells (nuclei); Similar results were obtained in U937 cells
Conditions: HL-60 cells
Description: Nuclear RNA immunoprecipitation (nRIP): nRIP performed as described by Ebralidze et al. (Science 303:383-387, 2004) with some modifications. Crosslinked nuclei were collected as follows: About 60×10^6 HL-60 cells were crosslinked with 1% formaldehyde (formaldehyde solution, freshly made 50 mM HEPES-KOH; 100 mM NaCl; 1 mM EDTA; 0.5 mM EGTA; 11% formaldehyde) for 10 minutes at room temperature. Crosslinking was halted by adding 1/10th volume of 2.66 M Glycine, kept for 5 minutes at room temperature and 10 minutes on ice. Cell pellets were washed twice with ice-cold PBS (freshly supplemented with 1 mM PMSF) and then resuspended in cell lysis buffer (volume=4 mL, 1× Buffer of 10 mM Tris pH 7.4; 10 mM NaCl; 0.5% NP-40, freshly supplemented with protease inhibitors (protease inhibitors cocktail: Roche Applied Science, Cat. No. 1836153, 1 tablet with 375 μL H2O; add as ×100), 1 mM PMSF, and 2 mM vanadyl complex (NEB)). Cells were incubated at 0° C. for 10-15 minutes and homogenized by Dounce (10 strokes pestle A and 40 strokes pestle B). Nuclei were recovered by centrifugation at 2,000 rpm for 10 minutes at 4° C. Nuclei were resuspended in 3 ml 1× Resuspension Buffer (50 mM HEPES-NaOH, pH 7.4; 10 mM MgCl2) supplemented with 1 mM PMSF and 2 mM vanadyl complex. […]

DNMT1, sequence (P26358 whole entry): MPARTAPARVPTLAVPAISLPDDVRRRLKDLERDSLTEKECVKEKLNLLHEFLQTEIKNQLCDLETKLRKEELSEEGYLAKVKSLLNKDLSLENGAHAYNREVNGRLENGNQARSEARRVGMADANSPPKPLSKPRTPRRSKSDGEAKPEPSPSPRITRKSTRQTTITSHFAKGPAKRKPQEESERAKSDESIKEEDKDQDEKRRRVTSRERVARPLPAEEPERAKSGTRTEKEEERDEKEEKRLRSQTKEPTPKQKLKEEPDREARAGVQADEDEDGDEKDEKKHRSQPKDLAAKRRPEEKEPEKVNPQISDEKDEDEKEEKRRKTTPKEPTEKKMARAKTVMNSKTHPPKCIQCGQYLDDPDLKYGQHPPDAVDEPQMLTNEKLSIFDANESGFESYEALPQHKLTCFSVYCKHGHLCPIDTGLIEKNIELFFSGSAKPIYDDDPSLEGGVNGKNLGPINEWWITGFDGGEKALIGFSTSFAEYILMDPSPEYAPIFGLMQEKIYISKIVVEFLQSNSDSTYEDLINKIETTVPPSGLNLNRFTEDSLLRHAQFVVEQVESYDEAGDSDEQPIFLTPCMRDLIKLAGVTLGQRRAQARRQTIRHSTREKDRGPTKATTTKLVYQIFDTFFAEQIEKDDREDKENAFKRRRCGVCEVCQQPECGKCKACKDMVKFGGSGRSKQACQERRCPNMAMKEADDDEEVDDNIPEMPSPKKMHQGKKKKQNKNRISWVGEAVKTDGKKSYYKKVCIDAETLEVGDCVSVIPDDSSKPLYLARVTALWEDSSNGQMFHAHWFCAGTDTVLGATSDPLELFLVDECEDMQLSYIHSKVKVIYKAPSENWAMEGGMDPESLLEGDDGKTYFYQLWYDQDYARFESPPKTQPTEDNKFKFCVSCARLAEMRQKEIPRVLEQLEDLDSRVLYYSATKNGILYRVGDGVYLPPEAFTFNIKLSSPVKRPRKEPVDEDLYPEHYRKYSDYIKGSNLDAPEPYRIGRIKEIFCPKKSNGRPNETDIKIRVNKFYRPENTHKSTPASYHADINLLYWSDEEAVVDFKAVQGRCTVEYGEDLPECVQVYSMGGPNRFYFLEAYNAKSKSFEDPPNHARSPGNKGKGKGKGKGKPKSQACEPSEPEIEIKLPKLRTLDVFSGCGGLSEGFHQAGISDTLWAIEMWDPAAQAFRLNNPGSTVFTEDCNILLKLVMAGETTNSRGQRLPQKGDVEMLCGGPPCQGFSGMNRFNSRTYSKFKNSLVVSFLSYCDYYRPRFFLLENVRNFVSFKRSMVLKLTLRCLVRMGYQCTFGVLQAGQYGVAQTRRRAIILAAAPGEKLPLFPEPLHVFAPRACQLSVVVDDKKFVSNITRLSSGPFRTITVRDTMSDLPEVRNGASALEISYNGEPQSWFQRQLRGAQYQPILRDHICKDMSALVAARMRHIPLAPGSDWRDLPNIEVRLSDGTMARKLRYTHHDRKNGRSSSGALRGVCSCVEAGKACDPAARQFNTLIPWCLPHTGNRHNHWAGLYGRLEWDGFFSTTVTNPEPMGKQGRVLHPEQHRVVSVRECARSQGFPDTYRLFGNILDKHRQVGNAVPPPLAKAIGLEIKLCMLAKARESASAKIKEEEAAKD

## ecRNA: endogenous ~5 kb non-polyadenylated nuclear extra-coding transcript of the C/EBPa locus (SEQ ID NO:8)
  enrichment in DNMT1-RNA precipitates compared to IgG control: > 60 fold
